Results on 10 compounds are retold here after patent US9546139B2, “Pyridine carboxylic acid based compound used as a P2X1 and P2X3 receptor antagonist, a production method for the same and a composition comprising the same” (GWANGJU INSTITUTE OF SCIENCE AND TECHNOLOGY, priority 2010, dated 2017).

Molecules are shown by their SMILES.

What all share (assay type): cell-based
One assay addresses T1, human P2X7 receptor (Homo sapiens, UniProt Q99572).
T1 construct: EST clones containing full-length cDNAs of mouse P2X1 (clone ID: 4189541) and human P2X7 receptor (clone ID: 5286944); host or cells: HEK293
T1 sequence (Q99572 1-595): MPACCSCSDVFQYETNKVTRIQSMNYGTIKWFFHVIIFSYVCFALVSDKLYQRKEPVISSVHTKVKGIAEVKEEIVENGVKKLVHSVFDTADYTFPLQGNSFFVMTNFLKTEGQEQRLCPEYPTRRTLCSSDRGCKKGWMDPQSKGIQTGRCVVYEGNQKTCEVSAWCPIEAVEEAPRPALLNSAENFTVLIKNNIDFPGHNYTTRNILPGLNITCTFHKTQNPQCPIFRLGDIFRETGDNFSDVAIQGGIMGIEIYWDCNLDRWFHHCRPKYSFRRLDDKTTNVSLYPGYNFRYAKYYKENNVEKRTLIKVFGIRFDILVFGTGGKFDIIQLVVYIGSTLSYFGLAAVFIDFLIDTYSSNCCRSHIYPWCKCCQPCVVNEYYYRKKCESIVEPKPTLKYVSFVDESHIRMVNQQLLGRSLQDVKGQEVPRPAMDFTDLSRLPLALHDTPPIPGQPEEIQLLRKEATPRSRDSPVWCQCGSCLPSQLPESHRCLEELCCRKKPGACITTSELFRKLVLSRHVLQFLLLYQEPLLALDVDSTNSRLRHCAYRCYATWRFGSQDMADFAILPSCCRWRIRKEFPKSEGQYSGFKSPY
Nature of the assay: Ethidium+ accumulation assay in human P2X7-expressing HEK293 cells. The following applies: 10 μM compound, ethidium+ accumulation induced by 6 μM BzATP, n = 3. The method, then:
1-2. Ethidium^+ Accumulation Assay at Human P2X7 Receptors
Human P2X7-expressing HEK293 cells were grown as monolayer culture at 37° C. in a humidified atmosphere of 5% CO2, DMEM supplemented with 10% fetal bovine serum. Cells were harvested with treatment of Trypsin/EDTA solution, collected by centrifugation (200 g for 5 min).
The cells were resuspended at 2.5×10^6 cells/mL in assay buffers, consisting of (in mM) HEPES 10, KCl 140, glucose 5, EDTA 1 (pH 7.4), and then ethidium bromide (100 μM) was added. Cell suspensions were added to 96 well plates containing the P2X7 receptor agonist, ATP or BzATP, at 2×10^5 cells/wells. Plates were incubated at 37° C. for 120 min and cellular accumulation of ethidium^+ was determined by measuring fluorescence with Bio-Tek instrument FL600 fluorescent plate reader (excitation wavelength of 530 nm and emission wavelength of 590 nm). When the effects of antagonists, such as PPADS, KN62, and test peptides were studied, antagonists were treated together with agonist without pre-incubation.

For a further assay, the target named is T2, human P2X3 receptor (Homo sapiens, UniProt P56373).
T2 construct: expressed in transfected cells; host or cells: Xenopus oocytes (cRNA injected); cDNA from the Max-Planck Institute laboratory (Dr. W. Stuhmer and Dr. F. Soto)
T2 sequence (P56373 1-397): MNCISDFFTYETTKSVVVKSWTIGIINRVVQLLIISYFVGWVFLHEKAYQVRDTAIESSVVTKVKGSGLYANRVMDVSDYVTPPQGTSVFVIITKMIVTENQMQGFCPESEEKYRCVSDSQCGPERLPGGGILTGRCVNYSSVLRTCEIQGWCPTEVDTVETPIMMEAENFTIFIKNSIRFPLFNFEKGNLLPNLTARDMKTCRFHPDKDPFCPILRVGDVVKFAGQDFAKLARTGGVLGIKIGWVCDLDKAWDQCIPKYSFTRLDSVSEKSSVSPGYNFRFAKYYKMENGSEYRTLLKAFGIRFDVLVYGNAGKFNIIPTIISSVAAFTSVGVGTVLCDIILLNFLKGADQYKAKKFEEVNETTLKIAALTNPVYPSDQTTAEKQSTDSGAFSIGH
Nature of the assay: Two-electrode voltage clamp, ATP-induced ion current in Xenopus oocytes expressing human P2X3. The following applies: for inhibition at 10 µM: Table 2, 10 μM compound, ion current induced by 2 μM ATP, mean ± SEM, n = 4, read-out: % inhibition hP2X3; for inhibition at 0.1 µM: concentration of 100 nM, receptor not stated in the sentence (follows FIG. 2B, human P2X3), read-out: % inhibition; for Hill coefficient: concentration-inhibitory curve, 2 μM ATP (FIG. 1C, FIG. 2B); for IC50: concentration-response curve, 2 μM ATP, mean of four observations, read-out: IC50 value. The protocol:
Antagonistic Activity at Recombinant Mouse P2X1 and Human P2X3 Receptors
(§1) Xenopus oocytes were harvested and prepared with method as previously described in publications. Defolliculated oocytes were injected cytosolically with mouse P2X1 and human P2X3 receptor cRNA ([…], 1 μg/mL), respectively, incubated for 24 hrs at 18° C. in Barth's solution and kept for up to 12 days at 4° C. until used in electrophysiological experiments. ATP-activated membrane currents (Vh=−70 mV) were recorded from cRNA-injected oocytes using the twin-electrode voltage-clamp technique (Axoclamp 2B amplifier). Voltage recording (1-2 MΩ tip resistance) and current-recording microelectrodes (5 MΩ tip resistance) were filled with 3.0 M KCl. Oocytes were held in an electrophysiological chamber and superfused with Ringer's solution (5 mL/min, at 18° C.) containing (mM) NaCl, 110; KCl, 2.5; HEPES, 5; BaCl2, 1.8, adjusted to pH 7.5. ATP was superfused over the oocytes for 60-120s then washed out for a period of 20 min. For inhibition curves, data were normalized to the current evoked by ATP, at pH 7.5. Test substances were added for 20 min prior to ATP exposure; all peptides were tested for reversibility of their effects. The concentration required to inhibit the ATP response by 50% (IC50) was taken from Hill plots constructed using the formula: log(I/Imax−1), where I is the current evoked by ATP in the presence of an antagonist. Data are presented as mean±SEM (n=4) for the data from different batches of oocytes.

The next assay concerns the target T3, mouse P2X1 receptor (Mus musculus, UniProt P51576).
T3 construct: EST clones containing full-length cDNAs of mouse P2X1 (clone ID: 4189541) and human P2X7 receptor (clone ID: 5286944); host or cells: Xenopus oocytes (cRNA injected)
T3 sequence (P51576 1-399): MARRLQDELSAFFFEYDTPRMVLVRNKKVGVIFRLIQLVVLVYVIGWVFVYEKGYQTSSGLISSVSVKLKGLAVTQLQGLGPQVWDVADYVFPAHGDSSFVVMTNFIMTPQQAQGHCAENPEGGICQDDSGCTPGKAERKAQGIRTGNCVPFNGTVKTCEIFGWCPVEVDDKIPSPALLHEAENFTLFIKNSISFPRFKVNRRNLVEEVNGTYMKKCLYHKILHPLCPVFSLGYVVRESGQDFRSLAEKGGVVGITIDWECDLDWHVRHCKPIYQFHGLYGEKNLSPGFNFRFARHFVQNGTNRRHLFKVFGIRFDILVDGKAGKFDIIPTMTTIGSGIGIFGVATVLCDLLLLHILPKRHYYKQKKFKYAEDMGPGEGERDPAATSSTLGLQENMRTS
Nature of the assay: Two-electrode voltage clamp, ATP-induced ion current in Xenopus oocytes expressing mouse P2X1. The conditions noted are these: for inhibition at 10 µM / % inhibition mP2X1: Table 2, 10 μM compound, ion current induced by 2 μM ATP, mean ± SEM, n = 4; for inhibition at 10 µM: read-out: % inhibition mP2X1; for Hill coefficient: concentration-inhibitory curve, 2 μM ATP (FIG. 1B, FIG. 2A); for IC50: concentration-response curve, 2 μM ATP, mean of four observations, read-out: IC50 value. The method, then: 1-1. Antagonistic Activity at Recombinant Mouse P2X1 and Human P2X3 Receptors
as §1

On to `COc1ccc(CCc2nc(C)c(O)c(C=O)c2/C=C/C(=O)O)cc1` [Compound 64, (E)-3-(4-formyl-5-hydroxy-2-(4-methoxyphenethyl)-6-methylpyridin-3-yl)acrylic acid], for which the “% inhibition hP2X7” value at human P2X7 receptor is “inactive”. In addition, the inhibition at 10 µM on human P2X3 receptor is 69.4 ± 7.5%; at mouse P2X1 receptor, 51.4 ± 4.8%.
With `Cc1nc(CCc2ccc(C(=O)O)cc2)c(C(=O)O)c(C(=O)O)c1O` [Compound 39, 2-[2-(4-Carboxy-phenyl)-ethyl]-5-hydroxy-6-methyl-pyridine-3,4-dicarboxylic acid], the “% inhibition hP2X7” value on human P2X7 receptor was “inactive”. Besides, on human P2X3 receptor, the inhibition at 10 µM amounted to 68.9 ± 11.7%, the inhibition at 0.1 µM is 34%, the Hill coefficient is given as −0.58±0.27 and the IC50 was determined as 339 nM. Further, on mouse P2X1 receptor, the “% inhibition mP2X1” value came out at 82.7 ± 6.0%, the inhibition at 10 µM worked out at 82%, the Hill coefficient was −1.00±0.09 and the IC50 was determined as 186 nM.
With `CC(=O)c1c(O)c(C)nc(/C=C/c2ccccc2)c1C(=O)O` [Compound 47, (E)-4-acetyl-5-hydroxy-6-methyl-2-styrylnicotinic acid], at human P2X7 receptor, the “% inhibition hP2X7” value was “inactive”. The results for the inhibition at 10 µM on human P2X3 receptor and on mouse P2X1 receptor were 27.4 ± 5.5% and 40.4 ± 1.3%, respectively.
Take `COc1ccc(CCc2nc(C)c(O)c(C(=O)O)c2C(=O)O)cc1` [Compound 37, 5-Hydroxy-2-[2-(4-methoxy-phenyl)ethyl]-6-methyl-pyridine-3,4-dicarboxylic acid]: the “% inhibition hP2X7” value at human P2X7 receptor was “inactive”. Also, the inhibition at 10 µM at human P2X3 receptor was found to be 59.8 ± 4.6%. For the same compound, at mouse P2X1 receptor, the “% inhibition mP2X1” value is given as 77.0 ± 3.8% and the inhibition at 10 µM came out at 78%.
With `Cc1nc(Cc2cccc3ccccc23)c(C(=O)O)c(C(=O)O)c1O` [Compound 50, 5-Hydroxy-6-methyl-2-(naphthalene-1-ylmethyl)pyridine-3,4-dicarboxylic acid], the “% inhibition hP2X7” value at human P2X7 receptor was “inactive”. Also, the inhibition at 10 µM at human P2X3 receptor was 67.9 ± 5.2%; at mouse P2X1 receptor, 48.3 ± 4.1%.
The matching figures for `CC(=O)c1c(O)c(C)nc(CCc2ccccc2)c1C(=O)O` [Compound 45, 4-acetyl-5-hydroxy-6-methyl-2-phenethylnicotinic acid]: “inactive”, 37.3 ± 10% and 47.9 ± 8.1%.
The matching figures for `COc1ccc(CCc2nc(C)c(O)c(C=O)c2C(=O)O)cc1` [Compound 67, 4-formyl-5-hydroxy-2-(4-methoxyphenethyl)-6-methylnicotinic acid]: “inactive”, 72.6 ± 4.3% and 52.8 ± 5.6%.
As for `Cc1nc(C=Cc2ccccc2)c(C(=O)O)c(C(=O)O)c1O` [Compound 38, 5-Hydroxy-6-methyl-2-styryl-pyridine-3,4-dicarboxylic acid], at human P2X7 receptor, the “% inhibition hP2X7” value is “inactive”. For the same compound, on human P2X3 receptor, the inhibition at 10 µM came to 48.4 ± 9%, the inhibition at 0.1 µM amounted to 19.2%, the Hill coefficient is −0.52±0.12 and the IC50 was found to be 782 nM. Moreover, on mouse P2X1 receptor, the inhibition at 10 µM is 71.4 ± 4.3%, the Hill coefficient is −0.98±0.11 and the IC50 worked out at 509 nM.
Regarding `COc1ccc(CCc2nc(C)c(O)c(C=O)c2CCC(=O)O)cc1` [Compound 61, 3-(4-formyl-5-hydroxy-2-(4-methoxyphenethyl)-6-methylpyridin-3-yl)propanoic acid], the “% inhibition hP2X7” value at human P2X7 receptor was “inactive”. In addition, the figures for the inhibition at 10 µM at human P2X3 receptor and at mouse P2X1 receptor were 70.5 ± 4.7% and 50.9 ± 6.1%, respectively.
For the compound `CC(=O)c1c(O)c(C)nc(Cc2ccccc2)c1C(=O)O` [Compound 44, 4-acetyl-2-benzyl-5-hydroxy-6-methylnicotinic acid], the “% inhibition hP2X7” value at human P2X7 receptor was “inactive”. Besides, the inhibition at 10 µM at human P2X3 receptor turned out to be 18.3 ± 6.4%. At mouse P2X1 receptor, the “% inhibition mP2X1” value was 44.2 ± 4.0% and the inhibition at 10 µM was found to be 46%.
